Test results reported in patent EP0497921B1, “METHOD FOR INHIBITING ENZYMATIC SYNTHESIS OF NUCLEIC ACIDS USING ISOPSORALENS” (ISAACS, Stephen T., priority 1989, dated 1991).

Legend:
calf thymus DNA [1] = test: Equilibrium dialysis, dark binding (association constant); details: for Ka: 4°C, five days, dark, isopsoralen:DNA base pair ratio 1:15
Procedure: Equilibrium Dialysis was used to determine the association ("dark binding") constants of AMIP, AMDMIP and MIP with calf thymus DNA. The tritium labelled isopsoralens were used for the experiment. The method was a modification of that of Isaacs et al. Biochemistry 16, 1058-1066 (1977).
Spectrapor 2 dialysis tubing (Spectrum) was pretreated by boiling in saturated sodium bicarbonate then rinsed thoroughly with double distilled water. Calf thymus DNA (Sigma) was prepared at a concentration of 50 µg/ml in 1 X TE. The samples were prepared by placing 1.0 ml of the DNA solution inside the bag and using enough isopsoralen to provide an isopsoralen:DNA base pair ratio of 1:15. The samples were prepared with the tritiated isopsoralen ("Drug") placed either inside or outside
of the dialysis bag (each sample was placed in a scintillation vial containing a small magnetic stir bar). The samples were stirred at 4°C for five days in the dark. After this period the bags were removed, opened, and the radioactivity inside and outside the bag determined by scintillation counting. The concentration of the DNA was determined by measuring optical density at 260 nm. The […] constant (Ka) was calculated from this information (Table 9). Preparing the samples in duplicate with the isopsoralen both inside and outside the dialysis bag provided a check that the system had come to equilibrium at the end of the dialysis period (the amount of isopsoralen inside and outside the bag at equilibrium should be, and was, the same in both cases).
The association constant, Ka is defined here as Ka = ([P:DNA])/([P] [DNA]) [formula] for the reaction P + DNA = P:DNA where p = free drug in solution, DNA = DNA binding site for the drug, and P:DNA = drug associated with the DNA. The following summarizes the Ka values determined for the compounds: […]

calf thymus DNA [2] = test: Covalent photobinding of tritiated isopsoralens (scintillation counting); format: binding; details: for actual concentrations obtained empirically: nominal concentration of 100 µg/ml in calf thymus DNA / 1 x TE, counted after sitting overnight at room temperature
Procedure: Figure 17 can again be referred to as a flow chart schematically showing the manner in which covalent binding was measured for the compounds synthesized by the methods of the present invention. ^3H-AMIP (3.1 x 10^5 cpm/µg), ^3H-AMDMIP (2.2 x 10^5 cpm/µg), and ^3H-MIP (2.1 x 10^5 cpm/µg) were added to 300 µl of calf thymus DNA (Sigma) in 1 x TE buffer. All of the isopsoralen compounds were added at a nominal concentration of 100 µg/ml. However, actual concentrations obtained empirically (counted after sitting overnight at room temperature) were: ^3H-AMIP (105 µg/ml), ^3H-AMDMIP (115 µg/ml), and ^3H-MIP ([…]).
To assess binding, three samples were prepared for each compound; two were irradiated (15 minutes at 25°C with the CE-I device) while one was unirradiated as a control. Following irradiation, the samples were extracted four times with CHCl3 then precipitated twice. The final pellet was brought up in 1 ml of 1 x TE buffer and resuspended by shaking at 40°C overnight. 50 µl of each sample was then diluted to 0.5 mls with H20. The concentration of DNA was determined by UV absorption (A260) and the amount of covalently bound isopsoralen ("adduct") was determined by scintillation counting (3 x 100 µl aliquots). From these numbers, the following binding ratios (adducts: DNA base pair) were determined: […]

Taq I DNA polymerase = test: Primer extension on site-specific 71-mer monoadduct template; format: biochemical, Thermus aquaticus; details: for Taq polymerase extension on 71-mer monoadduct template / position of the Taq polymerase stop within the 71-mer: 55°C, PAGE, autoradiography; for Taq polymerase extension on 71-mer monoadduct template: 0.5, 1.0, 5.0 mins
Procedure: In this experiment, monoadducted 71-mers (as well as unmodified 71-mers) were used in template-dependent enzymatic extension. AMIP, AMDMIP, and MIP 71-mer monoadducts were made as in Example 17. Extension was carried out as in Example 18 except that in this experiment, Taq I DNA polymerase, a thermostable DNA polymerase isolated from Thermus aquaticus (Stratagene, Inc., La Jolla, CA) was assessed for its ability to read past isopsoralens.
The reaction mixture was in 80 µl total volume and comprised 1 x Taq buffer, 200 µM each of dNTP's, 0.05 units of Taq per µl of reaction volume; 1 x 10^-9 M in 71-mer MA; 1 x 10^-8 M in ^32P-labelled SK-39. Each reaction was set up with everything except Taq polymerase. The samples were initially heated to 95°C for 5 mins, then incubated at 55°C for 3 mins. The extension reaction was initiated by addition of Taq polymerase. At the indicated time points (0.5, 1.0, 5.0 mins), 20 µl of the reaction mix was removed to a tube containing 1 µl of 0.5 M EDTA to stop the reaction. All products were analyzed on a 20% polyacrylamide, 7 M urea gel followed by autoradiography.
This experiment investigated whether blocking of Taq polymerase by monoadducts is complete or whether monoadducts can be bypassed by the enzyme. In order to view the process of bypass synthesis, it is necessary to cycle the extension reaction of the primer with the 71-mer templates. Cycling in this case consists of mixing the primer with the 71-mer template, adding Taq polymerase and appropriate reagents, extending, heating to induce strand separation, reannealing of the primer to the 71-mer template, extending again, and subsequent stand separation. This process can be repeated as necessary. During this process, only the complement of the 71-mer template is being synthesized. It is accumulating in a linear fashion with the number of thermal cycles (in contrast to PCR where both strands are being synthesized and accumulate geometrically).
The templates and reaction conditions were as in Example 19 above except that three samples were used for each monoadduct and each sample was tested under different conditions: • Samples (1): one sample for each monoadduct was used to carry out extension at 55°C as in Example 43; • Samples (2): one sample for each monoadduct was used to carry out extension by the following series of steps: denaturing at 95°C; incubating for 30 seconds at 55°C; adding Taq polymerase for 3 minutes at 550C; cooling the reaction for 1 minute at 7°C; stopping the reaction with EDTA for one minute at 95°C: • Samples (3): one sample for each monoadduct was used to carry out extension by repeating the following series of steps nine times: denaturing at 95°C; incubating for 30 seconds at 55°C; adding Taq polymerase for 3 minutes at 55°C; cooling the reaction for 1 minute at 7°C. At the end, the reaction is stopped with EDTA for one minute at 95°C.
To investigate this question further, a new 5-MIP monoadducted 71-mer was prepared by repurification of the HPLC purified 5-MIP monoadducted 15-mer by PAGE. In this way, more of the non-monoadducted 15-mer was removed prior to ligation. The purified 71-mer was then used as template in an extension experiment as described in Example 20. After 10 cycles, there was still evidence of extension product (Figure 34).
Monoadducted 71-mer was constructed as described, but for HMT. Extension was carried out and analyzed as before on PAGE. […] Full length 71-mer is not made and a shorter strand corresponding to the position of the HMT adduct was made.

[3] = tritiated drug placed inside dialysis bag
[4] = tritiated drug placed outside dialysis bag

| Compound | Ka (calf thymus DNA [1]; [3]) | Ka (calf thymus DNA [1]; [4]) | actual concentrations obtained empirically (calf thymus DNA [2]) | Taq polymerase extension on 71-mer monoadduct template (Taq I DNA polymerase) | position of the Taq polymerase stop within the 71-mer (Taq I DNA polymerase) | extension products truncated (Taq I DNA polymerase; monoadducted 15-mer repurified by PAGE before ligation, after 10 cycles) | full length extension product as share of the total extension products (Taq I DNA polymerase; monoadducted 15-mer repurified by PAGE before ligation, after 10 cycles, band excised and counted) | Ka relative to AMDMIP (calf thymus DNA [1]; compared with AMDMIP) | modification density relative to that provided by AMDMIP (calf thymus DNA [2]; photobinding at the same concentration) |
| --- | --- | --- | --- | --- | --- | --- | --- | --- | --- |
| Cc1cc2occc2c2oc(=O)ccc12 [MIP, 5-Methylisopsoralen] | 9.08 x 10^3 | 2.07 x 10^3 | < 10 µg/mL | stops at positions that are shorter than the full length 71-mer product | at about the position of the TpA sequence in the 10-mer | 97.7% | 2.3% | – | – |
| 5-Aminomethylisopsoralen [AMIP] | 2.96 x 10^4 | 2.21 x 10^4 | 105 µg/mL | stops at positions that are shorter than the full length 71-mer product | multiple stops | – | – | 28% | 43% |
| 4'-Aminomethyl-4,5'-dimethylisopsoralen [AMDMIP] | 7.66 x 10^4 | 1.07 x 10^5 | 115 µg/mL | stops at positions that are shorter than the full length 71-mer product | a different stop altogether | – | – | – | – |
